The supplement of paper PMC11061612

Legend:
[1] = tested on: TUR (Acute Myeloid Leukemia); test: combination Emax (second highest fraction inhibited in the dose matrix, 72 h); higher = more inhibition; extreme values may be limits of the assay
Summary of the method: (§1)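 After 24 hours at 37°C and 5% CO2 in 1536-well plates, cells in DMEM/F12 or RPMI plus 10% FBS received two-drug dose matrices for 72 hours. Viability came from CellTiter-Glo 2.0 luminescence and was scaled as inhibition, anchored at 0 by vehicle wells and at 1 by blank wells. Combination Emax is taken as the second-highest inhibition in the matrix, and Bliss excess as the observed combination effect less EA + EB − EA·EB, with EA and EB the single-agent effects.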

[2] = tested on: SAT (Head and Neck Carcinoma); test: as above
Summary of the method: as §1

[3] = tested on: ZR-75-30 (Breast Carcinoma); test: as above
Summary of the method: as §1

[4] = tested on: SNU-423 (Hepatocellular Carcinoma); test: as above
Summary of the method: as §1

[5] = tested on: CPC-N (Small Cell Lung Carcinoma); test: as above
Summary of the method: as §1

[6] = tested on: CL-11 (Colorectal Carcinoma); test: as above
Summary of the method: as §1

GAK (Melanoma) = test: as above
Summary of the method: as §1

ES6 (Ewing's Sarcoma) = test: as above
Summary of the method: as §1

[7] = tested on: NAMALWA (Burkitt's Lymphoma); test: as above
Summary of the method: as §1

[8] = tested on: NCI-H1963 (Small Cell Lung Carcinoma); test: as above
Summary of the method: as §1

NCI-H226 (Mesothelioma) = test: as above
Summary of the method: as §1

[9] = tested on: MOLT-13 (T-Lymphoblastic Leukemia); test: as above
Summary of the method: as §1

[10] = tested on: SK-CO-1 (Colorectal Carcinoma); test: as above
Summary of the method: as §1

[11] = tested on: HPAF-II (Pancreatic Carcinoma); test: as above
Summary of the method: as §1

SK-N-SH (Neuroblastoma) = test: as above
Summary of the method: as §1

[12] = tested on: HPAF-II (Pancreatic Carcinoma); test: Bliss excess, mean over the matrix (fraction); higher = more synergy
Summary of the method: as §1
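Throughout, for Bliss excess, mean over the matrix: after 72 h of two-drug dosing.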

Structure (SMILES)	combination Emax [1]	combination Emax [2]	combination Emax [3]	combination Emax [4]	combination Emax [5]	combination Emax [6]	combination Emax (GAK (Melanoma))	combination Emax (ES6 (Ewing's Sarcoma))	combination Emax [7]	combination Emax [8]	combination Emax (NCI-H226 (Mesothelioma))	combination Emax [9]	combination Emax [10]	combination Emax [11]	combination Emax (SK-N-SH (Neuroblastoma))	Bliss excess [12]
CC(=O)c1c(C)c2cnc(Nc3ccc(N4CCNCC4)cn3)nc2n(C2CCCC2)c1=O [Palbociclib] + Cc1c2c(nn1C)CSCc1cc(n(C)n1)CSc1cc(c3ccccc3c1)OCCCc1c(C(=O)O)n(C)c3c-2c(Cl)ccc13 [AZD5991] (first compound max 10 µM, 7x7, partner max 1 µM)	0.621	0.821	0.26	0.315	0.264	0.309	0.369	0.412	0.956	0.534	0.204	1	0.455	0.142	0.575	-0.0186
COc1nnc2ccc(N3CCC(c4ccc(OCCN5CCN(C)C(=O)[C@H]5C)cc4)CC3)nn12 [AZD5153] + CCN(CCO)CCCOc1ccc2c(Nc3cc(CC(=O)Nc4cccc(F)c4)[nH]n3)ncnc2c1 [AZD2811] (first compound max 1 µM, 7x7, partner max 1 µM)	0.827	0.775	0.313	0.507	0.697	0.677	0.44	0.43	0.748	0.882	0.443	1	0.571	0.379	0.532	0.0072
Cn1cnc2c(F)c(Nc3ccc(Br)cc3Cl)c(C(=O)NOCCO)cc21 [Selumetinib] + CCN(CCO)CCCOc1ccc2c(Nc3cc(CC(=O)Nc4cccc(F)c4)[nH]n3)ncnc2c1 [AZD2811] (first compound max 10 µM, 7x7, partner max 1 µM)	0.349	0.604	0.111	0.264	0.717	0.709	0.629	0.15	0.336	0.902	0.216	1	0.878	0.682	0.289	0.0129
Cn1cnc2c(F)c(Nc3ccc(Br)cc3Cl)c(C(=O)NOCCO)cc21 [Selumetinib] + C=CCn1c(=O)c2cnc(Nc3ccc(N4CCN(C)CC4)cc3)nc2n1-c1cccc(C(C)(C)O)n1 [AZD1775] (first compound max 10 µM, partner max 1 µM)	0.764	0.637	0.134	0.396	0.748	0.855	0.719	0.233	0.966	0.913	0.145	1	0.794	0.728	0.381	0.039
CC(=O)c1c(C)c2cnc(Nc3ccc(N4CCNCC4)cn3)nc2n(C2CCCC2)c1=O [Palbociclib] + CC1(C)CCC(CN2CCN(c3ccc(C(=O)NS(=O)(=O)c4ccc(NCC5CCOCC5)c([N+](=O)[O-])c4)c(Oc4cnc5[nH]ccc5c4)c3)CC2)=C(c2ccc(Cl)cc2)C1 [Venetoclax] (first compound max 10 µM, 7x7, partner max 1 µM)	0.348	0.353	0.101	0.179	0.106	0.298	0.205	0.232	0.537	0.922	0.176	0.709	0.43	0.0506	0.465	-0.034
CC(=O)c1c(C)c2cnc(Nc3ccc(N4CCNCC4)cn3)nc2n(C2CCCC2)c1=O [Palbociclib] + Cn1cnc2c(F)c(Nc3ccc(Br)cc3Cl)c(C(=O)NOCCO)cc21 [Selumetinib] (first compound max 10 µM, 7x7, partner max 10 µM)	0.379	0.549	0	0.241	0.14	0.864	0.697	0.349	0.595	0.456	0.232	0.721	0.858	0.629	0.371	-0.0337
C[C@@H](c1ccc2nccn2c1)n1nnc2ncc(-c3cnn(C)c3)nc21 [Savolitinib] + CC1(C)CCC(CN2CCN(c3ccc(C(=O)NS(=O)(=O)c4ccc(NCC5CCOCC5)c([N+](=O)[O-])c4)c(Oc4cnc5[nH]ccc5c4)c3)CC2)=C(c2ccc(Cl)cc2)C1 [Venetoclax] (first compound max 1 µM, 7x7, partner max 1 µM)	0.0127	0.151	0.127	0.233	0.203	0.09	0.199	0.179	0.213	0.422	0.17	0.467	0.0828	0.131	0.32	-0.018
C[C@@H](c1ccc2nccn2c1)n1nnc2ncc(-c3cnn(C)c3)nc21 [Savolitinib] + Cc1c2c(nn1C)CSCc1cc(n(C)n1)CSc1cc(c3ccccc3c1)OCCCc1c(C(=O)O)n(C)c3c-2c(Cl)ccc13 [AZD5991] (first compound max 1 µM, 7x7, partner max 1 µM)	0.347	0.427	0.248	0.2	0.263	0.132	0.264	0.174	0.956	0.192	0.131	0.99	0.114	0.125	0.267	-0.0163
